“Also recorded” adds a separate entry of the source.
Columns and labels:
tumor cell surface FR = settings: cited from earlier work
HOS-FRα tumors = experiment: subcutaneous HOS-FRα osteosarcoma xenograft, E2 CAR-T cells plus EC17; format: in vivo
Excerpt: A dosing regimen is shown in FIG. 21 which includes administration of about 5 million E2 CAR T cells at day −3; administration of EC17 at days 0, 3, 7, 14, 17, 21, 28, 31 and 35. Sequential escalating doses of EC17 will be administered under the following rules: If no CRS or neurotoxicity, advance through EC17 dose escalation as planned. If CRS grade≤2, administer all subsequent EC17 doses at die Sequence level that provoked the non-serious CRS in the stone cycle. If CRS grade>2, cancel further EC17 doses in the current Cycle, and commence all subsequent Cycles at the next highest Sequence below that which provoked the severe CRS (sCRS).
HOS-FRα (i.e. HOS-143b-LV-FRα) is a subclone of HOS-143B (ATCC CRL-8303) stably transfected with human FRα. HOS-143B was originally derived from a […] with osteosarcoma. The tumor cells were grown in folate-deficient RPMI 1640 with 5% FBS at 37° C. in a 5% CO2 humidified atmosphere. For the in-vivo study, tumor cells were inoculated subcutaneously at 1×10^6 cells per animal.
EGFRt-sorted anti-FITC E2 scFv-CAR T cells were frozen in a T-cell freezing medium. Upon arrival, vials of frozen CAR-T cells were immediately stored at −80° C. The CAR-T cells were quickly thawed at 37° C., washed twice with PBS, and used for animal injection at 6 million viable EGFRt+E2 CAR-T cells (CD4/CD8 at ~1:1) per animal. A small aliquot was taken on the day infusion for flow cytometric analysis of E2-CAR T-cell phenotypes.
EC17 dosing solutions were prepared when dosing began by weighing appropriate amounts of each compound, reconstituting in PBS, pH 7.4, sterile filtering the drug solution through a 0.22 pm PVDF syringe filter, and freezing aliquots for each day of dosing at −20° C.
All EC17 doses were given towards the end of day (3-4 PM) to allow potential CRS (cytokine release syndrome) to develop overnight.
Tumor growth, body weight, and overall assessment: Tumor sizes were monitored 2-3 times/week and body weight measured 2-3 times/week. On the days immediately after any EC17 dose, body weight measurement was taken daily and attention was given to gross animal morphology and behavior.
Euthanasia: Euthanasia was performed when mice had lost ≥20% of their weight, when tumors reached ≥1500 mm^3. Euthanasia was also performed if mice lost a lot of weight in a short duration (e.g., due to severe head-tilt), or when they approached moribund conditions per CRS grading system.
All animal care and use were performed according to NIH guidelines and in compliance with protocols approved by the Purdue University Animal Use and Care Committee. Female 4 to 5-week-old NOD/SCID gamma (NSG™) mice (stock number:005557) were purchased from The Jackson Faboratory (Bar Harbor, ME). Unless specifically indicated, all animals were maintained on a FA-deficient diet (TestDiet, St. Fouis, MO) upon arrival and throughout the study. To establish subcutaneous xenografts, MDA-MB-231 and HOS-FRα were implanted in the right flank region at 2.5×10^6 and 1×10^6 cells per animal, respectively. For intravenous xenografts, THP1-FRβ) cells were inoculated at 5×10^6 cells per animal. Subcutaneous tumors were measured 2-3 times per week with a caliper and calculated using the ellipsoidal formula (length×width2)/2. […] All animal doses (CAR-T cells, EC17, sodium fluorescein) were given intravenously.
In a therapeutic setting, EC17 CAM can be given before or after CAR-T cell injection. […]

[1] = cited from earlier work
[2] = cited from earlier work; remark: listed apart in the source
[3] = E2 CAR-T cells + EC17 5/100/1000 nmol/kg, M/Th/M (Cohort 2)

SMILES: NC1=NC2N=CC(CNc3ccc(C(=O)N[C@@H](CCC(=O)NCCNC(=S)Nc4ccc(-c5c6ccc(=O)cc-6oc6cc(O)ccc56)c(C(=O)O)c4)C(=O)O)cc3)=NC2C(=O)N1 (some centres unmarked) [EC17, FA-(γ)-ethylenediamine-FITC]
- affinity for tumor cell surface FR (tumor cell surface FR): sub-nanomolar
- body weight loss or CRS (HOS-FRα tumors; [3]): without body weight loss or CRS
- tumor volume of HOS-FRα tumors (HOS-FRα tumors; [3]): significant tumor regression
- CAR-T cell expansion in whole blood (flow cytometry) (HOS-FRα tumors; EC17 dose escalation M/Th/M, at euthanasia days 33 and 47): EC17-dependent CAR-T cell expansion up to day 47 but higher on day 33
- CRS or body weight loss (HOS-FRα tumors; ~6 million E2-CAR-T cells + EC17 5/10/100, 5/30/300, 5/50/500 nmol/kg in Cycles 1-3, M/Th/M): no CRS or body weight loss
- HOS-FRα tumor growth (HOS-FRα tumors; ~6 million E2-CAR-T cells + EC17 5/10/100, 5/30/300, 5/50/500 nmol/kg in Cycles 1-3, M/Th/M, 6-day break): significant delay in tumor growth within the first two cycles of treatment; also recorded: stopped responding to treatment in Cycle 3
- Maximum Tolerated Dose (MTD) ([1]; EC17 doses of 3.1×10^−2 and 2.76×10^−1 mg/kg in previously-conducted human studies): not reached
- subjects with mild hypersensitivity reaction (most common adverse event) ([1]; intravenous, single agent, 84 subjects): 10.7%
- overall tolerability ([1]; intravenous, single agent): well tolerated
- serious adverse events ([1]; intravenous, single agent): No serious adverse events were reported
- clearance from circulation ([2]; 0.1 mg/kg intravenous): rapid clearance from circulation
- time EC17 fluorescence signal observed at the site of the tumor ([2]; after administration, latest time-point evaluated): up to 5 hours
- time to real-time visualization of malignant lesions ([2]; post EC17 administration): ≤ 2 h
- elimination half-life ([2]; single 10-minute intravenous infusion of 0.1 mg/kg, plasma): 1.45 h

Reference: US20260263517A1, “THERAPEUTIC METHODS WITH TARGET-LINKED SMALL MOLECULES AND ANTI-TARGET CAR T CELLS” (Seattle Children's Hospital (dba Seattle Children's …, priority 2022, published 2026)
